Experimental data from publication PMC10304225, “In Vitro Cytotoxicity and In Vivo Antitumor Activity of Lipid Nanocapsules Loaded with Novel Pyridine Derivatives” (Pharmaceutics, 2023).
≈ marks a conversion by molar mass, not a printed value.

What was measured:
[1] = Biochemical analysis of liver and kidney functions in serum; assay type: in vivo; conditions: EAC-bearing mice, 10 mg/kg i.p., last day of experiment
Method: On the last day of the experiment, 4 out 8 mice were euthanized, and blood samples were collected by cardiac puncture in dry Eppendorf tubes. Blood samples were set aside for 30 min at room temperature and the tubes were then centrifuged for 15 min at 2000× g to obtain serum. To assess possible hepatic damage, aspartate transaminase (AST) and alanine transaminase (ALT) activities in serum samples were assayed by using a commercial kit (Biodiagnostic, Cairo, Egypt) according to the method of Reitman and Frankel. In addition, serum creatinine level was quantified as an indicator for possible renal damage. The level of serum creatinine was analyzed by using a commercial kit that was purchased from Biodiagnostic (Cairo, Egypt) according to manufacturer instructions.

[2] = system: Ehrlich ascites carcinoma (EAC) solid tumor; experiment: Histopathological examination of solid tumors (H&E); assay type: in vivo, mice; conditions: 10 mg/kg
Method: On the last day of the experiment, solid tumors were dissected from all mice and were fixed […] in formalin-alcohol for 48 h, dehydrated in an alcohol series, cleared in xylene, and embedded in paraffin. Sections (4–5 μm in thickness) were stained with hematoxylin and eosin (H&E). Slides were then imaged using a Universal Infinity System optical microscope (Olympus®, Tokyo, Japan) equipped with a computer-controlled digital camera. A histopathological analysis of the tumor sections was focused on finding a typical mitotic picture, neoplastic giant cells, and the extension of the necrotic area. Histopathological examinations were evaluated in a blinded way by a pathologist.

[3] = system: Ehrlich ascites carcinoma (EAC) solid tumor; experiment: In vivo antitumor activity in EAC solid tumor-bearing mice; conditions: 10 mg/kg i.p. every other day for 21 days
Method: Ehrlich ascites carcinoma (EAC) cells (1 × 10^6 cells) obtained from the National Cancer Institute (Cairo, Egypt) were injected intraperitoneally into the peritoneal cavity of Swiss Albino mice. On day 7 post tumor cell inoculation, ascites fluid was collected. EAC was diluted with saline to obtain a cell density of 25 × 10^6 cells/mL. Then, 200 μL of the cells were injected subcutaneously in the mice’s right flanks. Tumor growth was monitored post-inoculation, and the size of the tumor was measured with a Vernier caliper. Treatment protocols were initiated on day 8 post tumor inoculation, when the tumor was palpable. […]
The dose and route of administration of the test compound and the treatment regimen were established based on previously published reports. The antitumor efficacy of different treatment protocols was evaluated in terms of tumor size, percentage tumor growth inhibition (% TGI), median survival time (MST), and percentage increase in life span (% ILS) using the following equations [31, 32]:Tumor size (mm^3) = ½ (Length × Width^2) % TGI=1−Mean tumor volume of treated group/Mean tumor volume in control group×100 MST = (day of first death + day of last death)/2 %ILS=MSTtreated group/MSTcontrol group−1×100
In addition, body weight was assessed concurrently to determine any remarkable systemic toxicity.

A549 cells = experiment: In vitro cytotoxicity, MTT assay; assay type: cell-based, human; conditions: 48 h, read-out: IC50 against A549
Method: (§1) A human lung cancer (A549) cell line, human breast adenocarcinoma (MCF-7), and normal MCF-10A human […] were obtained from VASCERA Co. (Vaccines Sera and Drugs; Cairo, Egypt). […] were cultured in Dulbecco’s modified Eagle’s medium (DMEM, Biowest, Nuaillé, France) supplemented with 10% fetal bovine serum, 100 U/mL penicillin/100 μg/mL streptomycin, and incubated under standard conditions (37 °C, 5% CO2).
(§2) The in vitro cytotoxicities of various pyridine derivatives loaded into LPNCs against A549 cells and MCF-7 cells were evaluated by the MTT assay. Briefly, 100 μL cell suspension equivalent to 1 × 10^4 cells/well was planted in a 96-well plate and incubated at 37 °C. At 24 h post-incubation, the cells were treated with 100 μL of serial dilutions of either free pyridine derivatives (S1–S4) or pyridine derivatives (S1–S4)-loaded LPNCs in a concentration range of 0.1 to 100 μM. The cells were further incubated at 37 °C for 48 h. The spent culture medium was then decanted, the cells were rinsed, 50 μL of MTT reagent (0.5 mg/mL) was added to each well, and the cells were incubated for 4 h at 37 °C. Finally, to dissolve the formazan crystals, DMSO solution (150 μL) was added to each well. The absorbance of each well was measured at 570 nm using a microplate reader (TEKAN Japan, Kawasaki, Japan). The percent cell viability was plotted against the tested compound concentration to determine the IC50 values.

MCF-7 cells = experiment: In vitro cytotoxicity, MTT assay; assay type: cell-based, human; conditions: 48 h, read-out: IC50 against MCF-7
Method: as §1, §2

[4] = Solubility measurement in various solvents (excess compound, 72 h shaking); assay type: physicochemical; conditions: for solubility in PB (pH 7.4): phosphate buffer pH 7.4
Method: The solubility of 2-amino-4-aryl-6-substituted pyridine-3,5-dicarbonitrile derivatives (S1–S4) in various solvents (methanol, ethanol, phosphate buffer, and water) was determined by adding an excess amount of each compound to 10 mL of each solvent in a sealed conical flask. The slurry was then agitated at 100 rpm in a temperature-controlled incubator shaker for 72 h to reach equilibrium. The undissolved particles were allowed to settle by keeping the saturated solution without agitation for another 2 h. The solution was then centrifuged at 10,000 rpm for 10 min. One mL samples of the clear supernatant was withdrawn, diluted with the suitable solvent, and finally analyzed spectrophotometrically at pre-determined wavelengths (Table S1).

Swiss Albino mice [5] = experiment: Median lethal dose (LD50), single i.p. injection; assay type: in vivo; conditions: for Number of animal dead: n=5, 24 h
Method: The median lethal dose (LD50) test was performed to determine the dose of a test substance that elicits 50% death in mice. Briefly, a total of 30 mice were categorized into 6 groups (n = 5). Each group was dosed with a single intraperitoneal injection of the test compound (S4) dissolved in 3% dimethyl sulfoxide. The screened doses ranged from 100 to 180 mg/kg. The animals were then monitored for 2 h and then at 4, 6, and 24 h for signs of toxicity. At the end of 24 h, the total number of deaths was recorded. The LD50 was then calculated using the following equation [27]: LD50=LD100−{Σ[Dose difference×Mean dead]}/Number of animals per group where LD100 is the lowest dose capable of killing 100% of animals.

Swiss Albino mice [6] = experiment: Acute toxicity study, single i.p. dose; assay type: in vivo
Method: Acute toxicity studies are carried out in order to evaluate the short-term negative effects of a test compound when administered in a single dose during a period of 24 h. Briefly, the maximum tolerated dose (100 mg/kg) of the test compound (S4), dissolved in 3% dimethyl sulfoxide, was injected intraperitoneally in a group of mice (n = 5). A control group (n = 5) was i.p. injected with an equivalent volume of 3% dimethyl sulfoxide. The mice were then observed for general behavior for 1 h post-treatment and then intermittently for 4 h and finally at 24 h. The mice were then monitored for up to 14 days after treatment for symptoms of toxicity or mortalities.

SMILES	ALT [1] [IU/L]	AST [1] [IU/L]	Creatinine [1] [mg/dL]	tumor section histology [2]	tumor growth inhibition rate (TGI (%)) [3] [%]	IC50 (A549 cells) [µM]	IC50 (MCF-7 cells) [µM]	solubility in ethanol [4] [mg/mL]	solubility in methanol [4] [mg/mL]	solubility in water [4] [mg/mL]	solubility in PB (pH 7.4) [4] [mg/ml]	lethality and signs of toxicity (Swiss Albino mice [5]; 100 mg/kg i.p.)	Number of animal dead (Swiss Albino mice [5]; 100 mg/kg i.p.)	lethality (Swiss Albino mice [5]; 120 mg/kg and higher, i.p.)	Number of animal dead (Swiss Albino mice [5]; 120 mg/kg i.p.)	Number of animal dead (Swiss Albino mice [5]; 140 mg/kg i.p.)	Number of animal dead (Swiss Albino mice [5]; 160 mg/kg i.p.)	Number of animal dead (Swiss Albino mice [5]; 180 mg/kg i.p.)	maximum tolerated dose (Swiss Albino mice [6]; mice, i.p.) [mg/kg]	acute toxicity observations (Swiss Albino mice [6]; up to 100 mg/kg i.p., monitored up to 14 days)
O=c1[nH]cc(F)c(=O)[nH]1 [Compound 5-FU, 5-fluorouracil, reference compound]	51.87 ± 1.29	74.23 ± 3.84	1.05 ± 0.15	loss of cellular architecture and tumor tissue compactness	86.81	–	–	–	–	–	–	–	–	–	–	–	–	–	–	–
CCNc1nc(N)c(C#N)c(-c2ccccc2)c1C#N [Compound S1]	–	–	–	–	–	> 100	> 100	5.98 ± 0.230 (≈ 22.7 mM)	21.76 ± 0.260 (≈ 82.6 mM)	0.57 ± 0.021 (≈ 2.16 mM)	–	–	–	–	–	–	–	–	–	–
Cc1ccc(Nc2nc(N)c(C#N)c(-c3ccccc3)c2C#N)cc1 [Compound S2]	–	–	–	–	–	> 100	> 100	13.82 ± 0.326 (≈ 42.5 mM)	25.71 ± 0.323 (≈ 79 mM)	1.25 ± 0.006 (≈ 3.84 mM)	1.63 ± 0.005	–	–	–	–	–	–	–	–	–
N#Cc1c(N)nc(Nc2ccccc2)c(C#N)c1-c1ccccc1 [Compound S4]	20.50 ± 1.28	36.66 ± 1.87	0.54 ± 0.02	loss of cellular architecture and tumor tissue compactness	73.42	> 100	> 100	18.56 ± 0.337 (≈ 59.6 mM)	16.57 ± 0.315 (≈ 53.2 mM)	0.58 ± 0.002 (≈ 1.86 mM)	0.59 ± 0.001	not lethal but only induced drowsiness	0	lethal to animals	5	5	5	5	100	no behavioral abnormalities, toxicity symptoms, or mortalities were detected
N#Cc1c(N)nc(N)c(C#N)c1-c1ccccc1 [Compound S3]	–	–	–	–	–	> 100	> 100	18.86 ± 0.225 (≈ 80.2 mM)	35.36 ± 0.203 (≈ 150 mM)	0.99 ± 0.007 (≈ 4.21 mM)	0.59 ± 0.010	–	–	–	–	–	–	–	–	–
